These are literature values, as cited in patent US11576926B2, “Composition for use in the prevention and/or treatment of epistaxis” (priority 2018, dated 2023).

One data set relates to Escherichia coli. To be noted: silver ions.
The next data set relates to Staphylococcus aureus. The note with it: silver ions.
In data set [1] the test system is non-allergic and idiopathic rhinitis.
The subject of data set [2] is corneal wounds in rat models with type 1 diabetes. To be noted: solution containing 0.3% HA.
For data set [3], the system named is nasal mucosa after surgery in the nasal cavity.
Data set [4] has as its system TPA (12-O-tetradecanoylphorbol-13-acetate) induced inflammatory response. The note with it: topical, 30 minutes before TPA.
For data set [5], the system named is seasonal allergic rhinitis. The note with it: 800 mg/day in addition to the classic anti-allergy treatment; 112 patients.
Another data set concerns rhinitis sicca syndrome. The note with it: nasal spray; 0.5% ectoin, or 0.5% ectoin and 1.0% dexpanthenol.
The subject of the next data set is fibroblast. The note with it: both in vitro and in vivo.
Data set [6] relates to ultraviolet-induced erythema. The note with it: in vivo.
Data set [7] deals with epithelial tissue in mouse models. The note with it: dexpanthenol cream; after 20 days; vs control group.
In the next data set the test system is dry rhinitis. The note with it: 20 ml spray with 5% dexpanthenol; vs placebo.
Setting [8] is: patients who received the therapy, 90 patients.

Regarding `[Ag]` [silver, Silver], the “antibacterial effect (structural changes, permeability, ion transport)” value in the data set with Escherichia coli is on record as “eventually leading to death”. In the data set with Staphylococcus aureus, the “antibacterial effect (structural changes, permeability, ion transport)” value is “eventually leading to death”. Further, in [1] (human, in vivo), the “improvement in the condition of the nasal epithelium, share of patients” value is on record as “over 70%” and the “treatment effect compared to placebo” value is “statistically significant compared to placebo”. In addition, in data set [1] (setting [8]), the “improvement in the nasal decongestion, share of cases” value is listed as 80% and the “improvement in the rhinorrhea, share of cases” value is 93%.

Take Hyaluronic acid: in data set [2], the “re-epithelialization of corneal wounds” value is “statistically significant in enhancing re-epithelialization”. The “formation of bloody scabs” value in data set [3] (after the first week of treatment) was “prevented excessive formation of bloody scabs”. Further, the tolerability entry in data set [3] (all trial participants) is “well tolerated”. Further, in data set [3] (cream with 2 mg HA per g, 6-week treatment, vs ointments based on plant extracts, 56 patients), the “recovery (healing of the nasal mucosa)” value was “recover faster and more effectively than the ointment group”. For the same compound, the adverse effects result in data set [3] (during the trial) was “No adverse effects were reported”.

For the compound Vitamin E, in [4], the “activity of myeloperoxidase (MPO)” value is given as “inhibits”, the “activity of xanthine oxidase (XO)” value was “inhibits”, the “lipid peroxidation (LPO)” value is “inhibits” and the “release of hydrogen peroxide” value is on record as “inhibits”. For the same compound, the “nasal symptoms associated with allergic rhinitis” value in [5] is listed as “reduction of the nasal symptoms”.

Consider `CC1=NCC[C@@H](C(=O)O)N1` [ectoin], for which, in the data set on rhinitis sicca syndrome, the “nasal obstruction, rhinorrhea and crusting” value is “decreased significantly”; the “recurrent nose bleeding, pharyngitis, exudate viscosity during inflammatory phenomena and cacosmia” value was “this did not occur”.

Regarding `CC(C)(CO)[C@@H](O)C(=O)NCCCO` [dexpanthenol, Dexpanthenol], in the data set on fibroblast, the fibroblast proliferation result is reported as “activate fibroblast proliferation”. For the same compound, the “effect on experimental ultraviolet-induced erythema” value in [6] was “anti-inflammatory effect”. Besides, in the data set on epidermal wounds (compared to placebo), the “epidermal regeneration (transepidermal water loss monitoring)” value was “significant acceleration of epidermal regeneration”. Moreover, in the data set with epidermal wounds (dexpanthenol emulsion), the “erythema of epidermal wounds” value is recorded as “reduction in erythema”. Moreover, the “re-epithelialization in wound healing” value with epidermal wounds (monitored by transepidermal water loss) is “Accelerated re-epithelialization”. In addition, the “regeneration rate of epithelial tissue” value in data set [7] is reported as “statistically higher than the control group”. The “symptoms of rhinitis (scabs, nasal respiratory capacity)” value with dry rhinitis was “improving the symptoms of rhinitis”.
